Source: patent US6673793B2, “Oxazinoquinolones useful for the treatment of viral infections” (Pharmacia & Upjohn Co., priority 2000, dated 2004)

Experiments:
CMV polymerase = target: T1, CMV polymerase (Human cytomegalovirus, UniProt P08546); assay: HCMV polymerase assay, scintillation proximity assay (SPA), modified version; type: biochemical; conditions: modified HCMV polymerase SPA assay: compounds diluted in 100% DMSO, 4.5 mM DTT in polymerase buffer, different lot of CMV polymerase; read-out: CMV polymerase IC50
T1 construct: made in house; host or cells: recombinant baculovirus-infected SF-9 cells
Procedure: The HCMV polymerase assay is performed using a scintillation proximity assay (SPA) as described in several references, such as N. D. Cook, et al., Pharmaceutical Manufacturing International, pages 49-53 (1992); K. Takeuchi, Laboratory Practice, September issue (1992); U.S. Pat. No. 4,568,649 (1986); which are incorporated by reference herein. Reactions are performed in 96-well plates. The assay is conducted in 100 μl volume with 5.4 mM HEPES (pH 7.5), 11.7 mM KCl, 4.5 mM MgCl2, 0.36 mg/ml BSA, and 90 nM ^3H-dTTP. Assays are run with and without CHAPS, (3-[(3-Cholamidopropyl)-dimethylammonio]-1-propane-sulfonate) at a final concentration of 2 mM. HCMV polymerase is diluted in enzyme dilution buffer containing 50% glycerol, 250 mM NaCl, 10 mM HEPES (pH 7.5), 100 μg/ml BSA, and 0.01% sodium azide. The HCMV polymerase, which is expressed in recombinant baculovirus-infected SF-9 cells and purified according to literature procedures, is added at 10% (or 10 μl) of the final reaction volume, i.e., 100 μl. Compounds are diluted in 50% DMSO and 10 μl are added to each well. Control wells contain an equivalent concentration of DMSO. Unless noted otherwise, reactions are initiated via the addition of 6 nM biotinylated poly(dA)-oligo(dT) template/primer to reaction mixtures containing the enzyme, substrate, and compounds of interest. Plates are incubated in a 25 C. or 37 C. H2O bath and terminated via the addition of 40 μl/reaction of 0.5 M EDTA (pH 8) per well. Reactions are terminated within the time-frame during which substrate incorporation is linear and varied depending upon the enzyme and conditions used, i.e., 30 min. for HCMV polymerase. Ten μl of streptavidin-SPA beads (20 mg/ml in PBS/10% glycerol) are added following termination of the reaction. Plates are incubated 10 min. at 37 C., then equilibrated to room temperature, and counted on a Packard Topcount. Linear regressions are performed and IC50's are calculated using computer software.
A modified version of the above HCMV polymerase assay is performed as described above, but with the following changes: Compounds are diluted in 100% DMSO until final dilution into assay buffer. In the previous assay, compounds are diluted in 50% DMSO. 4.5 mM dithiotherotol (DTT) is added to the polymerase buffer.

T1 sequence (P08546 whole entry): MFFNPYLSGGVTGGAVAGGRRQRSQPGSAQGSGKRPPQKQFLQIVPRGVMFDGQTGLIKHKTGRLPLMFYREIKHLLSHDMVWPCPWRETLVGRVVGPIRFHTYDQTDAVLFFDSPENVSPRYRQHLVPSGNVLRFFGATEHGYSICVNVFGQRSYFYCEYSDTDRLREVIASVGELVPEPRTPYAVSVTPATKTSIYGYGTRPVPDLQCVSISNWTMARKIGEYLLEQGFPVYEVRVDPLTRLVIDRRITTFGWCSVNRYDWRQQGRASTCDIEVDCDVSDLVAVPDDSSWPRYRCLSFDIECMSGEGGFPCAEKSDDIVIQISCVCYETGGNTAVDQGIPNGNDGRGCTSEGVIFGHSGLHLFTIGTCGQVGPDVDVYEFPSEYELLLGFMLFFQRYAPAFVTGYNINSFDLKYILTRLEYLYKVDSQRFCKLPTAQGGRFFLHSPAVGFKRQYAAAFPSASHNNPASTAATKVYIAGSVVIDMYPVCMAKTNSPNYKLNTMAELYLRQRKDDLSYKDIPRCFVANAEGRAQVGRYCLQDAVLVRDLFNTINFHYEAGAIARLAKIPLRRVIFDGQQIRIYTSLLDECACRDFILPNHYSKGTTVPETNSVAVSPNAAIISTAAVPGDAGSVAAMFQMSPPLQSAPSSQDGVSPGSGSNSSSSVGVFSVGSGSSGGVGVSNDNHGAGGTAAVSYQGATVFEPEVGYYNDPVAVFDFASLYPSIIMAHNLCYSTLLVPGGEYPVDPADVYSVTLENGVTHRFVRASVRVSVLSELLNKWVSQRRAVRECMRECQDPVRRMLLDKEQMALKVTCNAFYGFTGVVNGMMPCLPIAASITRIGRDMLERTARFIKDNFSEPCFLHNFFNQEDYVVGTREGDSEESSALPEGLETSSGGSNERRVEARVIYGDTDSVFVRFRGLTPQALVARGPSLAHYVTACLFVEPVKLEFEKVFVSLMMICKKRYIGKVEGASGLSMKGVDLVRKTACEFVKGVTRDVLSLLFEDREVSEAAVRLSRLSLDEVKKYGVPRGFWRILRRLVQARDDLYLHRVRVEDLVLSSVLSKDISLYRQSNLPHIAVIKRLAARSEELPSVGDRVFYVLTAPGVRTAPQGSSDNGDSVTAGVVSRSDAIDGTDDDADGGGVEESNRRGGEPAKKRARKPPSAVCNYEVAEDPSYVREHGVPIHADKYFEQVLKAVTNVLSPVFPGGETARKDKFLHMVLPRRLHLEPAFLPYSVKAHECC

| IC50 (CMV polymerase) [nM] | melting point | Compound |
| --- | --- | --- |
| 330 | 234 to 236 °C | O=C(NCc1ccc(Cl)cc1)c1cn2c3c(cc(CN4CCOCC4)cc3c1=O)OC(c1cc(F)cc(F)c1)C2 (centres unmarked) [Example 39, N-(4-Chlorobenzyl)-2-(3,5-difluorophenyl)-9-(morpholin-4-ylmethyl)-7-oxo-2,3-dihydro-7H-[1,4]oxazino[2,3,4-ij]quinoline-6-carboxamide] |
| 330 | 227 to 231 °C | O=C(NCc1ccc(Cl)cc1)c1cn2c3c(cc(CN4CCOCC4)cc3c1=O)OC(c1ccc3c(c1)OCO3)C2 (centres unmarked) [Example 40, 2-(1,3-Benzodioxol-5-yl)-N-(4-chlorobenzyl)-9-(morpholin-4-ylmethyl)-7-oxo-2,3-dihydro-7H-[1,4]oxazino[2,3,4-ij]quinoline-6-carboxamide] |
| 440 | 240 to 243 °C | O=C(NCc1ccc(Cl)cc1)c1cn2c3c(cc(CN4CCOCC4)cc3c1=O)OC(c1ccc3c(c1)OCCO3)C2 (centres unmarked) [Example 41, N-(4-Chlorobenzyl)-2-(2,3-dihydro-1,4-benzodioxin-6-yl)-9-(morpholin-4-ylmethyl)-7-oxo-2,3-dihydro-7H-[1,4]oxazino[2,3,4-ij]quinoline-6-carboxamide] |
| 200 | 221 to 225 °C (dec.) | O=C(NCc1ccc(Cl)cc1)c1cn2c3c(cc(CN4CCOCC4)cc3c1=O)OC(c1cccc3c1OCO3)C2 (centres unmarked) [Example 42, 2-(1,3-Benzodioxol-4-yl)-N-(4-chlorobenzyl)-9-(morpholin-4-ylmethyl)-7-oxo-2,3-dihydro-7H-[1,4]oxazino[2,3,4-ij]quinoline-6-carboxamide] |
| 400 | 187 to 189 °C | COCOc1cc(OCOC)cc(C2Cn3cc(C(=O)NCc4ccc(Cl)cc4)c(=O)c4cc(CN5CCOCC5)cc(c43)O2)c1 (centres unmarked) [Example 43, 2-[3,5-bis(Methoxymethoxy)phenyl]-N-(4-chlorobenzyl)-9-(morpholin-4-ylmethyl)-7-oxo-2,3-dihydro-7H-[1,4]oxazino[2,3,4-ij]quinoline-6-carboxamide] |
| 1040 | 177 to 180 °C | COCOc1cccc(C2Cn3cc(C(=O)NCc4ccc(Cl)cc4)c(=O)c4cc(CN5CCOCC5)cc(c43)O2)c1OCOC (centres unmarked) [Example 44, 2-[2,3-bis(Methoxymethoxy)phenyl]-N-(4-chlorobenzyl)-9-(morpholin-4-ylmethyl)-7-oxo-2,3-dihydro-7H-[1,4]oxazino[2,3,4-ij]quinoline-6-carboxamide] |
| 410 | 241 to 245 °C (dec.) | O=C(NCc1ccc(Cl)cc1)c1cn2c3c(cc(CN4CCOCC4)cc3c1=O)OC(c1ccsc1)C2 (centres unmarked) [Example 45, N-(4-Chlorobenzyl)-9-(morpholin-4-ylmethyl)-7-oxo-2-thien-3-yl-2,3-dihydro-7H-[1,4]oxazino[2,3,4-ij]quinoline-6-carboxamide] |
| 530 | 251 to 254 °C | O=C(NCc1ccc(Cl)cc1)c1cn2c3c(cc(CN4CCOCC4)cc3c1=O)OC1(CCOCC1)C2 [Example 46, N-[(4-Chlorophenyl)methyl]-2,3,5,6-tetrahydro-9′-(4-morpholinylmethyl)-7′-oxospiro[4H-pyran-4,2′(3′H)-[7H]pyrido[1,2,3-de][1,4]benzoxazine]-6′-carboxamide] |
| 830 | 213 °C (dec.) | CC(C)(C)OC(=O)N1CCC2(CC1)Cn1cc(C(=O)NCc3ccc(Cl)cc3)c(=O)c3cc(CN4CCOCC4)cc(c31)O2 [Example 47, 1,1-Dimethylethyl 6-[[[(4-chlorophenyl)methyl]amino]carbonyl]-9′-(4-morpholinylmethyl)-7′-oxospiro[piperidine-4,2′(3′H)-[7H]pyrido[1,2,3-de][1,4]benzoxazine]-1-carboxylate] |
| 2150 | 246 to 250 °C (dec.) | O=C(NCc1ccc(Cl)cc1)c1cn2c3c(cc(CN4CCOCC4)cc3c1=O)OC1(CCNCC1)C2 [Example 48, N-[(4-Chlorophenyl)methyl]-9′-(4-morpholinylmethyl)-7′-oxospiro[piperidine-4,2′(3′H)-[7H]pyrido[1,2,3-de][1,4]benzoxazine]-6′-carboxamide] |
| 2330 | 234 to 237 °C (dec.) | CN1CCC2(CC1)Cn1cc(C(=O)NCc3ccc(Cl)cc3)c(=O)c3cc(CN4CCOCC4)cc(c31)O2 [Example 49, N-[(4-Chlorophenyl)methyl]-1-methyl-9′-(4-morpholinylmethyl)-7′-oxospiro[piperidine-4,2′(3′H)-[7H]pyrido[1,2,3-de][1,4]benzoxazine]-6′-carboxamide] |
| 1170 | > 260 °C | O=C(NCc1ccc(Cl)cc1)c1cn2c3c(cc(CN4CCOCC4)cc3c1=O)OC1(CCC3(CC1)OCCO3)C2 [Example 50] |
| 750 | 147 to 149 °C | COCOCC1(COCOC)Cn2cc(C(=O)NCc3ccc(Cl)cc3)c(=O)c3cc(CN4CCOCC4)cc(c32)O1 [Example 51, N-(4-Chlorobenzyl)-2,2-bis[(methoxymethoxy)methyl]-9-(morpholin-4-ylmethyl)-7-oxo-2,3-dihydro-7H-[1,4]oxazino[2,3,4-ij]quinoline-6-carboxamide] |
| 810 | 230 to 233 °C | O=C(NCc1ccc(Cl)cc1)c1cn2c3c(cc(CN4CCOCC4)cc3c1=O)OC(CO)(CO)C2 [Example 52, N-(4-Chlorobenzyl)-2,2-bis(hydroxymethyl)-9-(morpholin-4-ylmethyl)-7-oxo-2,3-dihydro-7H-[1,4]oxazino[2,3,4-ij]quinoline-6-carboxamide] |
| 530 | 147 to 149 °C | O=C(NCc1ccc(Cl)cc1)c1cn2c3c(cc(CN4CCOCC4)cc3c1=O)OC1(CCSCC1)C2 [Example 53, N-[(4-Chlorophenyl)methyl]-2′,3′,5′,6′-tetrahydro-9-(4-morpholinylmethyl)-7-oxospiro[7H-pyrido[1,2,3-de]-1,4-benzoxazine-2(3H),4′-[4H]thiopyran]-6-carboxamide] |
| 600 | 249.5 to 252 °C | O=C1CCC2(CC1)Cn1cc(C(=O)NCc3ccc(Cl)cc3)c(=O)c3cc(CN4CCOCC4)cc(c31)O2 [Example 54, N-[(4-Chlorophenyl)methyl]-9′-(4-morpholinylmethyl)-4,7′-dioxospiro[cyclohexane-1,2′(3′H)-[7H]pyrido[1,2,3-de][1,4]benzoxazine]-6′-carboxamide] |
| 410 | 229 to 234 °C | O=C(NCc1ccc(Cl)cc1)c1cn2c3c(cc(CN4CCOCC4)cc3c1=O)OC1(CCC(O)CC1)C2 (centres unmarked) [Example 55, N-[(4-Chlorophenyl)methyl]-4-hydroxy-9′-(4-morpholinylmethyl)-7′-oxospiro[cyclohexane-1,2′(3′H)-[7H]pyrido[1,2,3-de][1,4]benzoxazine]-6′-carboxamide] |
| 480 | > 260 °C | Cn1ccnc1C1Cn2cc(C(=O)NCc3ccc(Cl)cc3)c(=O)c3cc(CN4CCOCC4)cc(c32)O1 (centres unmarked) [Example 59, N-(4-Chlorobenzyl)-2-(1-methyl-1H-imidazol-2-yl)-9-(morpholin-4-ylmethyl)-7-oxo-2,3-dihydro-7H-[1,4]oxazino[2,3,4-ij]quinoline-6-carboxamide] |
| 460 | 220 to 222.5 °C | O=C(NCc1ccc(Cl)cc1)c1cn2c3c(cc(CN4CCOCC4)cc3c1=O)OC(c1ccco1)C2 (centres unmarked) [Example 60, N-(4-Chlorobenzyl)-2-(2-furyl)-9-(morpholin-4-ylmethyl)-7-oxo-2,3-dihydro-7H-[1,4]oxazino[2,3,4-ij]quinoline-6-carboxamide] |
